Assay results published in US20150335549A1, “Oral Care Composition Containing Ionic Liquids” (COLGATE-PALMOLIVE COMPANY, priority 2012, published 2015).

How the values were obtained:
A. viscosus = assay: Growth inhibition of A. viscosus over 24 hours (bacterial optical density); format: cell-based; conditions: for Bacterial optical density, 4 h / Bacterial optical density, 22 h / Bacterial optical density, 24 h / Bacterial optical density, 0 h: 500 μl test sample added to 9.5 ml A. viscosus in TSB, 3 replicates; for Bacterial optical density, 0 h: initial O.D.
Description: Bacterial optical density was captured every at 0, 4, 22 and 24 hrs.

[1] = tested on: biofilm of artificial mouth consortium (A. naeslundii, S. oralis, V. parvula, L. casei, F. nucleatum) of bacteria with S. mutans; assay: In vitro biofilm removal: 3-day old multispecies oral biofilm on saliva-coated 24 well plate, optical density at 610 nm, % reduction from water control; conditions: for impact on biofilm removal (in words): ingredient effect in mouthrinse formulations, 3-day old in-vitro oral biofilm; for % removal in High humectant mouthwash / % removal in Low humectant mouthwash: 3-day old biofilm
3-day biofilm = assay: Design-of-experiments statistical analysis / D-Optimal Design prediction of 3-day biofilm removal; conditions: glycerin 10%, propylene glycol 5%; for Percent biofilm removal: sorbitol 10%; for Percent biofilm removal if sorbitol at 20%: sorbitol 20%
Description: A statistical design-of-experiments (DOE) approach was used to develop prototype mouth rinse formulations for biofilm removal. An 8 factor design was used. A mouth rinse was used a base formulation (see Table 3). […] The influence of the anti-bacterial agent cetyl pyridinium chloride (CPC) on biofilm removal was also evaluated. The sweetener sucralose and the flavor were at kept constant concentration in all the formulations.

Compound | Bacterial optical density, 4 h (A. viscosus) | Bacterial optical density, 22 h (A. viscosus) | Bacterial optical density, 24 h (A. viscosus) | Bacterial optical density, 0 h (A. viscosus) | impact on biofilm removal (in words) [1] | other results
CC(=O)[O-].CCn1cc[n+](C)c1 [EMIM acetate] | 0.2324 | 0.7942 | 0.8223 | 0.1482 | – | –
1-buty1-3-methylimidazolium (BMIM) bromide | 0.2373 | 0.5994 | 0.8244 | 0.1482 | – | –
Choline acetate | 0.2559 | 0.9480 | 1.0385 | 0.1482 | – | –
1,2,4-trimethyl-pyrazolium methylsulfate | 0.1978 | 0.8519 | 1.0042 | 0.1482 | – | –
OCC(O)CO [glycerin] | – | – | – | – | increases the percent of biofilm removal | –
C[N+](CCO)(CCO)CCO [Tris-HMAM, tris (2-hydroxyethyl) methylammonium methylsulfate] | 0.2605 | 0.8415 | 0.9087 | 0.1482 | enhances biofilm removal | Percent biofilm removal (3-day biofilm; choline salicylate 0, TRIS 10): 47%; Percent biofilm removal if sorbitol at 20% (3-day biofilm; choline salicylate 0, TRIS 10): 52%; Percent biofilm removal (3-day biofilm; choline salicylate 0, TRIS 20): 60%; Percent biofilm removal if sorbitol at 20% (3-day biofilm; choline salicylate 0, TRIS 20): 65%; % removal in High humectant mouthwash ([1]; 1% Tris-HMAM): 39.0%; % removal in Low humectant mouthwash ([1]; 1% Tris-HMAM): 25.6%; % removal in High humectant mouthwash ([1]; 2.5% Tris-HMAM): 50.5%; % removal in Low humectant mouthwash ([1]; 2.5% Tris-HMAM): 28.2%; % removal in High humectant mouthwash ([1]; 5% Tris-HMAM): 53.9%; % removal in Low humectant mouthwash ([1]; 5% Tris-HMAM): 30.9%; % removal in High humectant mouthwash ([1]; 10% Tris-HMAM): 57.7%; % removal in Low humectant mouthwash ([1]; 10% Tris-HMAM): 46.8%; % removal in High humectant mouthwash ([1]; 20% Tris-HMAM): 71.1%; % removal in Low humectant mouthwash ([1]; 20% Tris-HMAM): 57.3%; % removal in High humectant mouthwash ([1]; 40% Tris-HMAM): 73.2%; % removal in Low humectant mouthwash ([1]; 40% Tris-HMAM): 67.1%
C[N+](C)(C)CCO.O=C([O-])c1ccccc1O [Choline salicylate, choline salicylate] | 0.1523 | 0.1542 | 0.1539 | 0.1482 | – | Percent biofilm removal (3-day biofilm; choline salicylate 10, TRIS 0): 48%; Percent biofilm removal if sorbitol at 20% (3-day biofilm; choline salicylate 10, TRIS 0): 53%; Percent biofilm removal (3-day biofilm; choline salicylate 20, TRIS 0): 61%; Percent biofilm removal if sorbitol at 20% (3-day biofilm; choline salicylate 20, TRIS 0): 66%; growth inhibition of A. viscosus (in words) (A. viscosus; formulated at 10% concentration in a mouth rinse): greater growth inhibition of A. viscosus than does a mouthrinse which contains 0.075% cetyl pyridinium chloride
OC[C@@H](O)[C@@H](O)[C@H](O)[C@@H](O)CO [sorbitol] | – | – | – | – | increases the percent of biofilm removal | increase in biofilm removal (3-day biofilm; 20% sorbitol in the formulations): ~5%
1-ethy1-3-methylimidazolium (EMIM) bromide | 0.2216 | 0.7598 | 0.8533 | 0.1482 | – | –
C[N+](C)(C)CCO.[Cl-] [Choline chloride] | 0.2445 | 1.0236 | 1.0674 | 0.1482 | – | –
CCOS(=O)(=O)[O-].CCn1cc[n+](C)c1 [EMIM ethylsulfate] | 0.2499 | 0.7514 | 0.7965 | 0.1482 | – | –
C=CCn1cc[n+](C)c1.[Cl-] [1-ally1-3-methylimidazolium (AMIM) chloride] | 0.2265 | 0.7091 | 0.8440 | 0.1482 | – | –
CC(O)CO (stereo not drawn) [propylene glycol] | – | – | – | – | increases the percent of biofilm removal | –
